Experiments:
[1] = test system: extrinsic pathway of coagulation in normal human plasma; test: Clotting assay: prothrombin time (PT); format: biochemical
Description: (§1) Clotting assays. All clotting times were measured using an Amelung coagulometer. Activated partial thromboplastin time (aPTT) was measured by incubating the peptides diluted in sterile water at the indicated concentrations, with 100 μL citrated human plasma for 1 minute followed by the addition of 100 μL aPTT reagent (aPTT Automate, Diagnostica Stago) for 60 seconds at 37° C. Clotting was initiated by the addition of 100 μL of a 25-mM CaCl2 solution. In the prothombrin time assay (PT), clotting was initiated by the addition of 100 μL Thrombomax with calcium (PT reagent; Sigma-Aldrich). For measuring the thrombin clotting time (TCT), clotting was initiated by the addition of 100 μL Accuclot thrombin time reagent (TCT reagent; Sigma-Aldrich).

[2] = Properties stated for FFF21 (FIG. 56)
[3] = test system: intrinsic pathway of coagulation in normal human plasma; test: Clotting assay: activated partial thromboplastin time (aPTT); format: biochemical
Description: as §1

[4] = test system: thrombin induced fibrin network formation in normal human plasma; test: Clotting assay: thrombin clotting time (TCT); format: biochemical
Description: as §1

[5] = test system: erythrocytes
Description: Hemolysis assay. EDTA-blood was centrifuged at 800 g for 10 min, whereafter plasma and buffy coat were removed. The erythrocytes were washed three times and resuspended in PBS, pH 7.4 to get a 5% suspension. The cells were then incubated with end-over-end rotation for 60 min at 37° C. in the presence of peptides (60 μM). 2% Triton X-100 (Sigma-Aldrich) served as positive control. The samples were then centrifuged at 800 g for 10 min and the supernatant was transferred to a 96 well microtiter plate. The absorbance of hemoglobin release was measured at λ 540 nm and is in the plot expressed as % of TritonX-100 induced hemolysis.

[6] = test system: RAW macrophages; test: Nitric oxide induction in RAW macrophages by LPS with or without HRG; format: cell-based, murine; conditions: 24 hours
Description: (§2) Nitric oxide induction in RAW macrophages. Confluent cells were harvested and transferred to 96-wells plate (3.5×10^5/well). After adhesion cells were washed with phenol red-free DMEM (Gibco). E. Coli LPS (100 ng/ml), LL-37 (2 or 10 μM) or HRG (2 or 10 μM) was preincubated at 37° C. for 30 minutes and then transferred to the cells. For inhibition of NO induction, 5 µg/ml anti mouse TLR4 antibody, 10 or 100 µM GHH25 or 100 µg/ml heparin were used. The cells were stimulated for 24 hours and nitric oxide was determined using the Griess chemical method.
as §2, with “([…]).” for “(3.5×10^5/well).”, “For inhibition of NO induction, 5 µg/ml anti mouse TLR4 antibody, 10 or 100 µM GHH25 or 100 µg/ml heparin were used.” left out

[7] = test system: E. coli LPS induced sepsis in wildtype C57BL/6 mice; test: LPS induced sepsis in wildtype mice, treatment with GHH25; format: in vivo, mouse
Source text: Animal experiments. The original knockout mice 129/B6-HRG^tm1wja1 were crossed with C57BL/6 mice (Taconic) for 14 generations to obtain uniform genetic background. These HRG-deficient mouse strain was called B6-HRG^tm1wja1 following ILAR (Institute of Laboratory Animal Resources) rules. Wildtype C57BL/6 control mice and C57BL/6 Hrg−/− mice (8-12 weeks, 27+/−4 g) were bred in the animal facility at Lund University. C57BL/6 Hrg^−/−, lacks the translation start point of exon 1 of the Hrg gene. Animals were housed under standard conditions of light and temperature and had free access to standard laboratory chow and water. In order to induce sepsis, 18 µg/g Escherichia coli 0111:B4 LPS were injected intraperitoneally into C57BL/6 or C57BL/6 Hrg−/− mice, divided into weight and sex matched groups. Survival and status was followed during seven days.
For treatment with GHH25 peptide, 1 mg of the peptide (diluted in 10 mM Tris, pH 7.4) or buffer only was injected intraperitoneal 30 minutes after LPS-challenge and survival and status was then followed.
Animal experiments. The original knockout mice 129/B6-HRG^tm1wja1 were crossed with C57BL/6 mice (Taconic) for 14 generations to obtain uniform genetic background. These HRG-deficient mouse strain was called B6-HRG^tm1wja1 following ILAR (Institute of Laboratory Animal Resources) rules. […]

[8] = test system: Human monocyte-derived macrophages; test: TNF-α release from human macrophages; format: cell-based; conditions: 10 ng/ml LPS with or without HRG (2 μM); GHH25 10 and 100 μM; 24 hours
Description: TNF-α release from human macrophages. Human monocyte-derived macrophages (hMDMs) were obtained from peripheral blood mononuclear cells (PBMCs) obtained from the blood of healthy donors using a Lymphoprep (Axis-Shield PoC AS) density gradient. PBMCs were seeded at concentrations of 3×10^6 cells/well into 24-well plates and cultured in RPMI1640 medium supplemented with 10% heat-inactivated autologous human plasma, 2 mM L-glutamine, and 50 μl/ml Antibiotic-Antimycotic (Gibco) in a humidified atmosphere of 5% CO2. After 24 h, non-adherent cells were removed and adherent monocytes were differentiated to macrophages for 10 days, with fresh medium changes every second day. […] After stimulation the supernatant was aspirated and TNF-α was measured using the TNF-α human ELISA kit (Invitrogen).

[9] = LPS-binding slot-blot assay with iodinated LPS; parameters: species or system Escherichia coli; conditions: 2 and 5 μg HRG on nitrocellulose; pH 7.4 or pH 5.5, with or without 0.15M NaCl
Description: Radioiodination of heparin and LPS. The radioiodination of heparin (from porcine intestinal mucosa, Sigma-Aldrich) was performed as described previously. The iodination of LPS was performed as described by Ulevitch. 1 mg Escherichia coli 0111:B4 LPS was incubated in 50 mM p-OH benzimidate in borate buffer, pH 8, over night at 4° C., and then dialyzed against PBS, pH 7.4. LPS was then radiolabelled with ^125I using the chloramine T method, and unlabelled ^125I was then removed by dialysis.
Heparin and LPS-binding assay. 1, 2 and 5 μg of the synthetic peptides in 100 μl PBS pH 7.4 were applied onto nitrocellulose membranes (Hybond-C, Amersham Biosciences) using a slot-blot apparatus. Membranes were blocked for 1 h at room temperature with 2% bovine serum albumin in PBS pH 7.4 and then incubated with radiolabelled LPS (˜40 μg·mL^−1, 0.13×10^6 cpm·μg^−1) or radiolabelled heparin (˜10 μg·mL^−1, 0.4×10^6 cpm·μg^−1) for 1 h at room temperature in PBS, pH 7.4. […] A Bas 2000 radio-imaging system (Fuji Film, Tokyo, Japan) was used to visualize radioactivity.
Slot-blot assay. […] After LPS binding, membranes were washed 3 times, 10 min each time in the above buffers and visualized for radioactivity on Bas 2000 radioimaging system (Fuji, Japan). […]
Heparin and LPS-binding assay. […] A Bas 2000 radio-imaging system (Fuji Film, Tokyo, Japan) was used to visualize radioactivity.

FFFAKLNCRLYRKANKSSKLV [FFF21, Antithrombin III-derived peptide, aa 153-173 of antithrombin III, P01008]
prothrombin time (PT) [1]: not significantly affected
antibacterial and antiinflammatory properties [2]: antibacterial and antiinflammatory properties
activated partial thromboplastin time (aPTT) [3]: impairs the intrinsic pathway of coagulation
thrombin clotting time (TCT) [4]: not significantly affected

CC[C@H](C)[C@H](NC(=O)[C@H](CCCCN)NC(=O)[C@H](CCC(=O)O)NC(=O)[C@H](CCCCN)NC(=O)[C@H](CO)NC(=O)[C@H](CCCCN)NC(=O)[C@H](CCCNC(=N)N)NC(=O)[C@H](Cc1ccccc1)NC(=O)[C@H](Cc1ccccc1)NC(=O)[C@H](CC(=O)O)NC(=O)CNC(=O)[C@H](CC(C)C)NC(=O)[C@@H](N)CC(C)C)C(=O)NCC(=O)N[C@@H](CCCCN)C(=O)N[C@@H](CCC(=O)O)C(=O)N[C@@H](Cc1ccccc1)C(=O)N[C@@H](CCCCN)C(=O)N[C@@H](CCCNC(=N)N)C(=O)N[C@H](C(=O)N[C@H](C(=O)N[C@@H](CCC(N)=O)C(=O)N[C@@H](CCCNC(=N)N)C(=O)N[C@H](C(=O)N[C@@H](CCCCN)C(=O)N[C@@H](CC(=O)O)C(=O)N[C@@H](Cc1ccccc1)C(=O)N[C@@H](CC(C)C)C(=O)N[C@@H](CCCNC(=N)N)C(=O)N[C@@H](CC(N)=O)C(=O)N[C@@H](CC(C)C)C(=O)N[C@H](C(=O)N1CCC[C@H]1C(=O)N[C@@H](CCCNC(=N)N)C(=O)N[C@H](C(=O)N[C@@H](CCC(=O)O)C(=O)N[C@@H](CO)C(=O)O)[C@@H](C)O)C(C)C)[C@@H](C)CC)C(C)C)[C@@H](C)CC [LL-37]
doses at which erythrocytes were readily permeabilized [5]: > 6 µM

GHHPHGHHPHGHHPHGHHPHGHHPH [GHH25]
LPS and HRG mediated NO release ([6]; 100 ng/ml LPS with or without HRG (2 μM), GHH25 10 and 100 μM): significantly decreased
survival ([7]; 1 mg GHH25 i.p. 30 minutes after E. coli LPS, followed seven days, p=0.03): significantly increased survival
health status ([7]; LPS induced sepsis, treatment with GHH25): Improved health status
TNF-α (HRG and LPS induced responses) [8]: inhibits HRG and LPS induced responses

B1: HRG: 67 kDa plasma protein histidine-rich glycoprotein, purified from human serum (protein, UniProt P04196 19-525, looked up)
Histidine-rich glycoprotein: VSPTDCSAVEPEAEKALDLINKRRRDGYLFQLLRIADAHLDRVENTTVYYLVLDVQESDCSVLSRKYWNDCEPPDSRRPSEIVIGQCKVIATRHSHESQDLRVIDFNCTTSSVSSALANTKDSPVLIDFFEDTERYRKQANKALEKYKEENDDFASFRVDRIERVARVRGGEGTGYFVDFSVRNCPRHHFPRHPNVFGFCRADLFYDVEALDLESPKNLVINCEVFDPQEHENINGVPPHLGHPFHWGGHERSSTTKPPFKPHGSRDHHHPHKPHEHGPPPPPDERDHSHGPPLPQGPPPLLPMSCSSCQHATFGTNGAQRHSHNNNSSDLHPHKHHSHEQHPHGHHPHAHHPHEHDTHRQHPHGHHPHGHHPHGHHPHGHHPHGHHPHCHDFQDYGPCDPPPHNQGHCCHGHGPPPGHLRRRGPGKGPRPFHCRQIGSVYRLPPLRKGEVLPLPEANFPSFPLPHHKHPLKPDNQPFPQSVSESCPGKFKSGFPQVSMFFTHTFPK
LPS mediated NO release ([6]; 100 ng/ml LPS, HRG 2 and 10 μM, n=6, p=0.001): significantly increased
binding of iodinated LPS [9]: LPS-binding

Reference: US20120189673A1, “POLYPEPTIDES AND USES THEREOF” (priority 2009, published 2012)
